From patent US8378104B2 (OSI Pharmaceuticals, LLC, priority 2010, dated 2013)
Where a name gives a salt, the structure may show the parent alone. Read-outs that look alike come from different tables or passages of the source.

Experiments:
pJNK in HCT-116 cells = test: Phospho-JNK (Thr183/Tyr185) Meso Scale ELISA assay, TNFα-stimulated HCT-116 cells; type: cell-based; conditions: Homo sapiens, read-out: mean HCT-116 pJNK ELISA IC50 (Col. B)
Method: Detailed below are ELISA assays for pJNK and p38, and a TAK1 biochemical assay. […] In Table 1, Col.
Phospho-JNK (Thr183/Tyr185) Meso Scale ELISA Assay
• 1. Plate HCT-116 cells at 25,000 per well in 100 uL in 96 well clear dishes in normal growth medium. Day 2: • 1. Aspirate medium and replace with 90 μl reduced serum growth medium (1% FCS), incubate for 2 hours at 37° C. • 2. Make drugs at 10× in reduced serum medium and add 10 uL per well. • 3. Incubate at 37° C. for 4 hrs. • 4. Bring capture plates to room temperature. • 5. Block with 150 μl Blocking Solution (provided with kit) (600 mg Blocker A into 20 mL 1× Wash Buffer per plate) at room temperature with shaking. • 6. Wash plates 4× with 200 μl 1× wash buffer (10× provided with kit) before transferring lysates. • 7. Dilute TNFα to […] in reduced serum medium (this makes a 10× working stock). • 8. Add 10 μl TNFα to all wells except negative control wells, final concentration is 10 ng/mL. • 9. Incubate at 37° C. for 10 minutes. • 10. Remove medium by flicking into sink • 11. Wash cells with 100 uL ice cold PBS. • 12. Remove PBS by flicking into sink and patting on paper towels. • 13. Lyse cells in 50 μl ice cold 1× Complete Lysis Buffer plus Phosphatase and Protease inhibitors (all provided with kit) (10 mL Tris Lysis Buffer+200 μl Protease inhibitor solution+100 μl Phosphatase inhibitor I+100 μl Phosphatase inhibitor II). • 14. Incubate with shaking at 4° C. for 30 minutes. • 15. Transfer 45 μl to capture plate, cover with adhesive cover, and incubate at 4° C. over night with shaking. • Day 3: • 1. Wash plates 4× with 200 μl 1× wash buffer (10× provided with kit). • 2. […] Incubate at room temperature with shaking for 1 hour. • 4. Wash 4× with 200 μl 1× Wash Buffer. • 5. […] Read on Sector Imager. Phospho-p38 Meso Scale ELISA Assay Day 1: • 1. Plate HCT-116 cells at 25,000 per well in 100 uL in 96 well clear dishes in normal growth medium. zday 2: • 1. Aspirate medium and replace with 90 μl reduced serum growth medium (1% FCS), incubate for 2 hours at 37° C. • 2. Make drugs at 10× in reduced serum medium and add 10 uL per well. • 3. Incubate at 37° C. for 4 hrs. • 4. Bring capture plates to room temperature. • 5. Block with 150 μl Blocking Solution (provided with kit) (600 mg Blocker A into 20 mL 1× Wash Buffer per plate) at room temperature with shaking. • 6. Wash plates 4× with 200 μl 1× wash buffer (10× provided with kit) before transferring lysates. • 7. Dilute TNFα to […] in reduced serum medium (this makes a 10× working stock). • 8. Add 10 μl TNFα to all wells except negative control wells, final concentration is 10 ng/mL. • 9. Incubate at 37° C. for 10 minutes. • 10. Remove medium by flicking into sink • 11. Wash cells with 100 uL ice cold PBS. • 12. Remove PBS by flicking into sink and patting on paper towels. • 13. Lyse cells in 50 μl ice cold 1× Complete Lysis Buffer plus phosphatase and protease inhibitors (all provided with kit) (10 mL Tris Lysis Buffer+200 μl Protease inhibitor solution+100 μl Phosphatase inhibitor I+100 μl Phosphatase inhibitor II). • 14. Incubate with shaking at 4° C. for 30 minutes. • 15. Dilute lysates before transferring to capture plate with 100 μl Complete p38 Lysate • Dilution Buffer (provided with kit) (10 mL of Diluent 20±200 μl Protease inhibitor solution+100 μl Phosphatase inhibitor I+100 μl Phosphatase inhibitor II). • 16. Transfer 50 μl of diluted lysates to capture plate, cover with adhesive cover, and incubate at 4° C. over night with shaking. Day 3: • 1. Wash plates 4× with 200 μl 1× wash buffer (10× provided with kit). • 2. […] Incubate at room temperature with shaking for 1 hour. • 4. Wash 4× with 200 μl 1× Wash Buffer. • 5. […] Read on Sector Imager. TAK1 Biochemical Assay

TAK1-TAB1 fusion protein = target: T1, TAK1-TAB1 fusion protein (Homo sapiens, UniProt O43318); test: TAK1 biochemical assay (AlphaScreen, GST-MAP2K7 substrate)
T1 construct: purchased Carna
T1 sequence (O43318 with tags, fused parts or gaps limits assumed): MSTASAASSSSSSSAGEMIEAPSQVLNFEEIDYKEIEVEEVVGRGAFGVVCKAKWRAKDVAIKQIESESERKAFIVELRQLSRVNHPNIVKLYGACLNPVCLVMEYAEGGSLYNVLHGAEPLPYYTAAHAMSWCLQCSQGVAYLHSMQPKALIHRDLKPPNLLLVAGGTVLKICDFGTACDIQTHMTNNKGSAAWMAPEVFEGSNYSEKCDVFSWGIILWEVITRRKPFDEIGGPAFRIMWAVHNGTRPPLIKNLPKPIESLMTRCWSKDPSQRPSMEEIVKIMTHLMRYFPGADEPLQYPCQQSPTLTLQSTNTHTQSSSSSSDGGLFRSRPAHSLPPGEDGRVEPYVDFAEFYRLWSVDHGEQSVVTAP

[1] = TAK1-TAB1 fusion protein, GST-MAP2K7 substrate, read-out: mean TAK1 IC50 (Col. A)

| Compound | IC50 (pJNK in HCT-116 cells) | IC50 (TAK1-TAB1 fusion protein; [1]) | IC50 (TAK1-TAB1 fusion protein) |
| --- | --- | --- | --- |
| CC(=O)N1CCC(n2cc(-c3cnc(N)c4oc(-c5csc6cnc(O)cc56)cc34)cn2)CC1 [Example 251, 1-(4-{4-[7-amino-2-(5-hydroxythieno[2,3-c]pyridin-3-yl)furo[2,3-c]pyridin-4-yl]-1H-pyrazol-1-yl}piperidin-1-yl)ethanone bis(trifluoroacetate)] | 1000 to 10000 nM | 100 to 1000 nM |  |
| CC(=O)N1CCC(n2cc(-c3cnc(N)c4oc(-c5csc6c(F)nccc56)cc34)cn2)CC1 [Example 256, 1-(4-{4-[7-amino-2-(7-fluorothieno[2,3-c]pyridin-3-yl)furo[2,3-c]pyridin-4-yl]-1H-pyrazol-1-yl}piperidin-1-yl)ethanone trifluoroacetic acid salt] | 100 to 1000 nM | 100 to 1000 nM |  |
| CC(=O)N1CCC(n2cc(-c3cnc(N)c4oc(-c5csc6cnncc56)cc34)cn2)CC1 [Example 261, 1-(4-{4-[7-amino-2-(thieno[2,3-d]pyridazin-3-yl)furo[2,3-c]pyridin-4-yl]-1H-pyrazol-1-yl}piperidin-1-yl)ethanone diformate] | 100 to 1000 nM | < 100 nM |  |
| CC(=O)N1CCC(n2cc(-c3cnc(N)c4oc(-c5cn(C)c6cnccc56)cc34)cn2)CC1 [Example 266, 1-(4-{4-[7-amino-2-(1-methyl-1H-pyrrolo[2,3-c]pyridin-3-yl)-furo[2,3-c]pyridin-4-yl]-pyrazol-1-yl}-piperidin-1-yl)-ethanone] | 100 to 1000 nM | < 100 nM |  |
| CC(C)(O)C#Cc1sc2cnccc2c1-c1cc2c(-c3cnn([C@H]4CC[C@H](O)CC4)c3)cnc(N)c2o1 [Example 271, trans-4-(4-{7-amino-2-[2-(3-hydroxy-3-methylbut-1-yn-1-yl)thieno[2,3-c]pyridin-3-yl]furo[2,3-c]pyridin-4-yl}-1H-pyrazol-1-yl)cyclohexanol trifluoroacetate] | 1000 to 10000 nM | 100 to 1000 nM |  |
| CC(=O)N1CCC(n2cc(-c3cnc(N)c4oc(-c5c(F)ccc6nnsc56)cc34)cn2)CC1 [Example 273, 1-(4-{4-[7-amino-2-(6-fluoro-1,2,3-benzothiadiazol-7-yl)furo[2,3-c]pyridin-4-yl]-1H-pyrazol-1-yl}piperidin-1-yl)ethanone] | 100 to 1000 nM | < 100 nM |  |
| CNc1ncc(-c2cnn([C@H]3CC[C@H](O)CC3)c2)c2cc(-c3cccc4cnsc34)oc12 [Example 282, trans-4-{4-[2-(1,2-benzothiazol-7-yl)-7-(methylamino)furo[2,3-c]pyridin-4-yl]-1H-pyrazol-1-yl}cyclohexanol] | 100 to 1000 nM | 100 to 1000 nM |  |
| CNc1ncc(-c2cnn([C@H]3CC[C@H](O)CC3)c2)c2cc(-c3cccc4nnsc34)oc12 [Example 284, trans-4-{4-{2-[2-(1,2,3-benzothiadiazol-7-yl)-7-(methylamino)furo[2,3-c]pyridin-4-yl]-1H-pyrazol-1-yl}cyclohexanol formate salt] | < 100 nM | < 100 nM |  |
| Nc1ncc(-c2cnn([C@H]3CC[C@H](O)CC3)c2)c2c(Cl)c(-c3cccc4cnsc34)oc12 [Example 285, trans-4-{4-[7-amino-2-(1,2-benzothiazol-7-yl)-3-chlorofuro[2,3-c]pyridin-4-yl]-1H-pyrazol-1-yl}cyclohexanol trifluoroacetic Acid Salt] | 100 to 1000 nM | 100 to 1000 nM |  |
| Nc1ncc(-c2cnn([C@H]3CC[C@H](O)CC3)c2)c2c(Cl)c(-c3cccc4nnsc34)oc12 [Example 286, trans-4-{4-[7-amino-2-(1,2,3-benzothiadiazol-7-yl)-3-chlorofuro[2,3-c]pyridin-4-yl]-1H-pyrazol-1-yl}cyclohexanol] | < 100 nM |  | < 100 nM |
| Nc1ncc(-c2cnn([C@H]3CC[C@H](O)CC3)c2)c2c(Cl)c(-c3csc4cnccc34)oc12 [Example 287, trans-4-{4-[7-amino-3-chloro-2-(thieno[2,3-c]pyridin-3-yl)furo[2,3-c]pyridin-4-yl]-1H-pyrazol-1-yl}cyclohexanol] | < 100 nM | 100 to 1000 nM |  |

Other lines, results leading:

| IC50 (pJNK in HCT-116 cells) | IC50 (TAK1-TAB1 fusion protein; [1]) | IC50 (TAK1-TAB1 fusion protein) | Compound |
| --- | --- | --- | --- |
| < 100 nM | < 100 nM |  | CC(=O)N1CCC(n2cc(-c3cnc(N)c4oc(-c5csc6cnc(F)cc56)cc34)cn2)CC1 [Example 248, 1-(4-{4-[7-amino-2-(5-fluorothieno[2,3-c]pyridin-3-yl)furo[2,3-c]pyridin-4-yl]-1H-pyrazol-1-yl}piperidin-1-yl)ethanone bis(trifluoroacetate)] |
| < 100 nM | 100 to 1000 nM |  | CC(=O)N1CCC(n2cc(-c3cnc(N)c4oc(-c5c(C#N)sc6cnccc56)cc34)cn2)CC1 [Example 264, 3-{4-[1-(1-acetylpiperidin-4-yl)-1H-pyrazol-4-yl]-7-aminofuro[2,3-c]pyridin-2-yl}thieno[2,3-c]pyridine-2-carbonitrile Trifluoroacetate] |
| < 100 nM | < 100 nM |  | Nc1ncc(-c2cnn([C@H]3CC[C@H](O)CC3)c2)c2cc(-c3csc4cnncc34)oc12 [Example 268, trans-4-{4-[7-amino-2-(thieno[2,3-d]pyridazin-3-yl)furo[2,3-c]-pyridin-4-yl]-1H-pyrazol-1-yl}cyclohexanol bistrifluoroacetate] |
| < 100 nM | 100 to 1000 nM |  | N#Cc1sc2cnccc2c1-c1cc2c(-c3cnn([C@H]4CC[C@H](O)CC4)c3)cnc(N)c2o1 [Example 270, 3-{7-amino-4-[1-(trans-4-hydroxycyclohexyl)-1H-pyrazol-4-yl]furo[2,3-c]pyridin-2-yl}thieno[2,3-c]pyridine-2-carbonitrile trifluoroacetate] |
| < 100 nM | < 100 nM |  | Nc1ncc(-c2cnn([C@H]3CC[C@H](O)CC3)c2)c2cc(-c3c(F)ccc4nnsc34)oc12 [Example 272, trans-4-{4-[7-amino-2-(6-fluoro-1,2,3-benzothiadiazol-7-yl)furo[2,3-c]pyridin-4-yl]-1H-pyrazol-1-yl}cyclohexanol diformate salt] |
| < 100 nM | < 100 nM |  | CNc1ncc(-c2cnn(C3CCN(C(C)=O)CC3)c2)c2cc(-c3cccc4nnsc34)oc12 [Example 278, 1-(4-{4-[2-(1,2,3-benzothiadiazol-7-yl)-7-(methylamino)furo[2,3-c]pyridin-4-yl]-1H-pyrazol-1-yl}piperidin-1-yl)ethanone] |
| < 100 nM | < 100 nM |  | CNc1ncc(-c2cnn([C@H]3CC[C@H](O)CC3)c2)c2cc(-c3csc4cnc(F)cc34)oc12 [Example 283, trans-4-{4-[2-(5-fluorothieno[2,3-c]pyridin-3-yl)-7-(methylamino)furo[2,3-c]pyridin-4-yl]-1H-pyrazol-1-yl}cyclohexanol] |
